{"source": "patent US9339668B2", "about": "“Extract of aerial parts of oats harvested before ear emergence” (priority 2008, dated 2016)", "system": "Prostaglandin PG6KF1α production in stimulated human keratinocyte", "test": "Production of prostaglandin PG6KF1α induced at the keratinocyte by calcium ionophore A23187", "format": "cell-based", "conditions": "10 μg/ml", "from_the_text": "Principle: The keratinocyte, the most represented cell at the epidermis, plays a significant role in initiating and modulating inflammatory reactions of the skin. With the model it is possible to determine in vitro the capabilities of various molecules of modulating the production of mediators stemming from the metabolism of arachidonic acid. Prostaglandin PG6KF1α is a stable metabolite of prostacyclin PGI2, a major metabolite produced by the stimulated human keratinocyte. An acetone extract of aerial parts of oats harvested before ear emergence and its fractions were evaluated on the production of this prostaglandin induced at the keratinocyte by the calcium ionophore A23187 (stimulating the cascade of arachidonic acid)."}
{"compound": "O=c1cc(-c2ccc(O)c(O)c2)oc2cc(O)c([C@@H]3O[C@H](CO)[C@@H](O)[C@H](O)[C@H]3OC3OC[C@@H](O)[C@@H](O)[C@@H]3O)c(O)c12", "note": "(stereo partly shown) [isoorientin-2″-O-arabinosyl]", "values": [{"measurement": "inhibition of PG6KF1α production", "result": 55, "unit": "%"}]}
